Experimental findings from patent publication US20240408022A1, “DESIDUSTAT PARTICLES AND COMPOSITIONS THEREOF” (ZYDUS LIFESCIENCES LIMITED, priority 2021, published 2024) are described below.

SMILES strings stand for the structures.

The nature of this series: Particle size and specific surface area analysis (Malvern Mastersizer 3000, laser diffraction). The following applies: for D10 / D50 / D90: particle size of desidustat used in the composition. The class given is physicochemical. Here is the method: (i) Particle Size and Specific Surface Area Analysis Method:
Particle size was determined by Malvern Mastersizer 3000 with Hydro MV accessory, laser diffraction particle size analyser. About 100 mg of drug substance weighed and transferred into 100 mL of glass beaker. About 10-15 drops of dispersant sunflower oil:cyclohexane (80:20) were added and the lumps were broken with glass rod for about 3 to 5 min. 20 mL of dispersant was added into the same glass beaker and the content were shaken for 3-5 minutes with glass rod to mix well. Background measurement using dispersant was performed. When the blank correction/background measurement was over, sample slurry (with continuous manual shaking) was added in the sampler at 1500 rpm to get the target obscuration value between 10% and 30% and remained constant. Then the histogram was recorded.

Where [1] appears, read: Example 1, after further multi-milling using 0.2 mm sieve.

For `O=C(O)CNC(=O)c1c(O)c2ccccc2n(OCC2CC2)c1=O` [Milled desidustat], the D10 was 0.80 μm, the D50 came out at 22.7 μm and the D90 is on record as 130.0 μm.

The molecule `O=C(O)CNC(=O)c1c(O)c2ccccc2n(OCC2CC2)c1=O` [Unmilled desidustat] had a D10 of 2.16 μm, a D50 of 98.3 μm and a D90 of 366 μm.

`O=C(O)CNC(=O)c1c(O)c2ccccc2n(OCC2CC2)c1=O` [desidustat, 2-(1-(Cyclopropylmethoxy)-4-hydroxy-2-oxo-1,2-dihydroquinoline-3-carboxamido) acetic acid]: under setting [1], the “Particle size distribution D10” value came to 0.80 μm, the “Particle size distribution D50” value is recorded as 22.7 μm, the “Particle size distribution D90” value is 130 μm and the Specific surface area was 2 m^2/g. The “Particle size D90” value (Example 1, after multi-milling using 5 mm sieve and drying, before 0.2 mm sieve) was 366 μm.
